Reference: BigSolDB 2.1

CN1CCN(C(=O)O[C@H]2c3nccnc3C(=O)N2c2ccc(Cl)cn2)CC1
solubility (mole fraction)
Details | 288.15 K | 293.15 K | 298.15 K | 303.15 K | 308.15 K | 313.15 K | 318.15 K | 323.15 K | 328.15 K
in acetone | 0.0013 | 0.00153 | 0.0019 | 0.00229 | 0.00269 | 0.00318 | 0.0037 | – | –
in ethanol | 0.00023 | 0.000282 | 0.00036 | 0.000431 | 0.000526 | 0.000672 | 0.000851 | 0.000996 | 0.0012
in isopropyl acetate | 0.000682 | 0.000796 | 0.000964 | 0.0012 | 0.0014 | 0.00163 | 0.00182 | 0.00203 | 0.00226
in methyl acetate | 0.00187 | 0.00217 | 0.0025 | 0.00303 | 0.00356 | 0.00414 | 0.00484 | – | –
in n-propanol | 0.00013 | 0.000172 | 0.000215 | 0.000292 | 0.000382 | 0.000493 | 0.00059 | 0.00079 | 0.00101
in n-propyl acetate | 0.000851 | 0.00102 | 0.00124 | 0.00153 | 0.00183 | 0.00208 | 0.00239 | 0.0027 | 0.00303
